In patent US8067424B2, “Selective inhibitors for cyclin-dependent kinases” (Emory University, priority 2007, dated 2011):
Where two headings read alike, the source gives them in different places.

What was measured:
[1] = system: RNA polymerase II phosphorylation (P-Ser-2, P-Ser-5); test: Inhibition of phosphorylation of RNA polymerase II (immunoblot, MCF-7 cells); type: cell-based; details: MCF-7 cells treated 4 hours
Procedure: MCF-7 breast cancer cells were treated with BS-181 or Roscovitine at the concentrations shown in FIG. 2 for 4 hours prior to harvesting of cells. […] Immunblotting for β-actin was used as loading control for protein content.

SK-MEL-2 = test: cells; details: Homo sapiens
HL-60(TB) = test: cells; details: Homo sapiens
[2] = SF-268, log10 concentration −4.0
[3] = SF-268, log10 concentration −5.0
[4] = SF-268, log10 concentration −6.0
[5] = SF-268, log10 concentration −7.0
[6] = SF-268, log10 concentration −8.0

CC(C)c1cnn2c(NCc3ccccc3)cc(NCCCCCCCN)nc12 [BS-181]
Inhibition of phosphorylation of RNA polymerase II [1]: capable of inhibiting phosphorylation of RNAPolymerase II

CC(C)c1cnn2c(NCc3ccccc3)cc(N[C@@H](CO)[C@H](O)CO)nc12 [ICEC0318, (3S)-3-(7-(Benzylamino)-3-isopropylpyrazolo[1,5-a]pyrimidin-5-ylamino)butane-1,2,4-triol]
GI50 (SK-MEL-2; SK-MEL-2): 404 nM
CC50 (SK-MEL-2; SK-MEL-2, read-out: LC50): > 100000 nM
TGI (SF-268; SF-268 (CNS Cancer)): 3.12E−5
Mean Optical Densities (SF-268; [2]): 0.404
Percent Growth (SF-268; [2]): −5%
Mean Optical Densities (SF-268; [3]): 0.460
Percent Growth (SF-268; [3]): 5%
Mean Optical Densities (SF-268; [4]): 0.452
Percent Growth (SF-268; [4]): 4%
Mean Optical Densities (SF-268; [5]): 1.234
Percent Growth (SF-268; [5]): 99%
Mean Optical Densities (SF-268; [6]): 1.291
Percent Growth (SF-268; [6]): 106%
GI50 (HL-60(TB); HL-60): 166 nM
CC50 (HL-60(TB); HL-60, read-out: LC50): > 100000 nM
